As a reminder, the DC50 is the concentration at which degradation of the target reaches its halfway point. By Dmax is commonly meant the greatest extent of degradation seen.

The target of one assay is T1, BRAF V600E (Homo sapiens, UniProt P15056, V600E).
T1 construct: expressed in transfected cells
Kind of assay: Cellular assay of target protein degradation, T-Rex 293 cells stably transfected with HA-BRAF_V600E (HA immunofluorescence, high content imaging). In kind it is cell-based. The following applies: T-Rex 293 HA-BRAF V600E; for DC50: half maximal degradation, read-out: BRaf V600E DC50; for Dmax: maximum degradation observed. In outline: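 Degradation of the HA-tagged construct is measured after 24 h treatment at 37 °C across 1 μM to 0.1 nM in 0.1% DMSO, in doxycycline-induced (1 ng/mL) cells. DC50 and Dmax come from HA fluorescence imaging.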

For another assay, the target named is T2, BRAF G466V (Homo sapiens, UniProt P15056, G466V).
T2 construct: expressed in transfected cells
T2 sequence (P15056 whole entry G466V): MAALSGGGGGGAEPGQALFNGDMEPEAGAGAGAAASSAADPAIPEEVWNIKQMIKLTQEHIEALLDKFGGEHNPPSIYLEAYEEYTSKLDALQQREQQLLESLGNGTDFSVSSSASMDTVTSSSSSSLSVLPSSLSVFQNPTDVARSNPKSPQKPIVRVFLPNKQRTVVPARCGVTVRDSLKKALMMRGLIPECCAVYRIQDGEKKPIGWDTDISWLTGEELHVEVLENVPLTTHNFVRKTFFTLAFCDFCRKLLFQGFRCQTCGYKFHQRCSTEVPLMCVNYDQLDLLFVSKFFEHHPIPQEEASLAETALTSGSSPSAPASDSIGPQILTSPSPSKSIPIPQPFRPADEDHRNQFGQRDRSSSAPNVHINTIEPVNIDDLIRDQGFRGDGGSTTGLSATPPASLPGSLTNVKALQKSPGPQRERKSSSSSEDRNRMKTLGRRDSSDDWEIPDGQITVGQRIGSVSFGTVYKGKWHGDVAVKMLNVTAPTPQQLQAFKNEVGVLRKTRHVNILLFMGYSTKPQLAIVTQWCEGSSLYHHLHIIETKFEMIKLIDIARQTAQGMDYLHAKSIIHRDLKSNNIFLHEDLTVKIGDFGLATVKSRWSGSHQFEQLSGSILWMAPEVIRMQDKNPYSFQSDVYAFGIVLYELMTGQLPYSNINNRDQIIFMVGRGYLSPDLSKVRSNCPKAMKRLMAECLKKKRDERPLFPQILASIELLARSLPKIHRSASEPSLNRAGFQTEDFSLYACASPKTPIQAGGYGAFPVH
The assay can be described thus: Cellular assay of target protein degradation, T-Rex 293 cells stably transfected with HA-BRAF G466V (HA immunofluorescence, high content imaging). The class given is cell-based. Particulars: T-Rex 293 HA-BRAF G466V; for DC50: half maximal degradation, read-out: BRaf G466V DC50; for Dmax: maximum degradation observed. In outline:
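Dose range spans 30 nM to 3 pM (0.1% DMSO) over 24 hours at 37° C, in cells induced with 0.75 ng/mL doxycycline. Fixed cells are probed with anti-HA antibody overnight at 4° C, then imaged; half-maximal degradation and maximum degradation are derived.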

T1 sequence (P15056 whole entry V600E): as the sequence (P15056 whole entry G466V) above, with V466G, V600E counted along it

Take `O=C1CCC(N2Cc3cc(C4CCN(CC5CCN(c6ccc(-c7cnc8[nH]cc(C(=O)c9c(Cl)ccc(NS(=O)(=O)N%10CC[C@@H](F)C%10)c9Cl)c8c7)cc6)CC5)CC4)ccc3C2=O)C(=O)N1` (stereo partly drawn) [Compound 268, (3R)-N-[2,4-dichloro-3-(5-{4-[4-({4-[2-(2,6-dioxopiperidin-3-yl)-1-oxo-2,3-dihydro-1H-isoindol-5-yl]piperidin-1-yl}methyl)piperidin-1-yl]phenyl}-1H-pyrrolo [2,3-b]pyridine-3-carbonyl)phenyl]-3-fluoropyrrolidine-1-sulfonamide]: at BRAF V600E, the 50% degradation concentration (DC50) lay in the range of 50 to 500 nM and the Dmax was in the range of 35 to 70%. Besides, at BRAF G466V, the DC50 fell in the range of 1 to 10 nM and the Dmax is below 35%.
With `COc1ccc(NS(=O)(=O)N2CC[C@@H](F)C2)c(F)c1C(=O)c1c[nH]c2ncc(-c3ccc(N4CCC(CN5CCC(c6ccc7c(c6)CN(C6CCC(=O)NC6=O)C7=O)CC5)CC4)cc3)cc12` (stereo partly drawn) [Compound 269, (3R)-N-[3-(5-{4-[4-({4-[2-(2,6-dioxopiperidin-3-yl)-1-oxo-2,3-dihydro-1H-isoindol-5-yl]piperidin-1-yl}methyl)piperidin-1-yl]phenyl}-1H-pyrrolo[2,3-b]pyridine-3-carbonyl)-2-fluoro-4-methoxyphenyl]-3-fluoropyrrolidine-1-sulfonamide], at BRAF V600E, the 50% degradation concentration (DC50) was in the range of 5 to 50 nM and the Dmax was 35 to 70%. For the same compound, on BRAF G466V, the DC50 was in the range of 1 to 10 nM and the Dmax lay within 35 to 70%.
Take `C[C@H]1[C@H](F)CCN1S(=O)(=O)Nc1ccc(F)c(C(=O)c2c[nH]c3ncc(-c4ccc(N5CCC(CN6CCC(c7ccc8c(c7)CN([C@H]7CCC(=O)NC7=O)C8=O)CC6)CC5)cc4)cc23)c1F` [Compound 270, (2S,3R)-N-{3-[5-(4-{4-[(4-{2-[(3S)-2,6-dioxopiperidin-3-yl]-1-oxo-2,3-dihydro-1H-isoindol-5-yl}piperidin-1-yl)methyl]piperidin-1-yl}phenyl)-1H-pyrrolo [2,3-b]pyridine-3-carbonyl]-2,4-difluorophenyl}-3-fluoro-2-methylpyrrolidine-1-sulfonamide]: at BRAF V600E, the 50% degradation concentration (DC50) lay in the range of 5 to 50 nM and the Dmax was 35 to 70%. In addition, on BRAF G466V, the DC50 lay within 1 to 10 nM and the Dmax is above 70%.
The matching figures for `C[C@H]1[C@H](F)CCN1S(=O)(=O)Nc1ccc(F)c(C(=O)c2c[nH]c3ncc(-c4ccc(N5CCC(CN6CCC(c7ccc8c(c7)CN(C7CCC(=O)NC7=O)C8=O)CC6)CC5)cc4)cc23)c1F` (stereo partly drawn) [Compound 271, (2S,3R)-N-[3-(5-{4-[4-({4-[2-(2,6-dioxopiperidin-3-yl)-1-oxo-2,3-dihydro-1H-isoindol-5-yl]piperidin-1-yl}methyl)piperidin-1-yl]phenyl}-1H-pyrrolo[2,3-b]pyridine-3-carbonyl)-2,4-difluorophenyl]-3-fluoro-2-methylpyrrolidine-1-sulfonamide]: 5 to 50 nM, 35 to 70%, 1 to 10 nM and above 70%.
Consider `O=C1CC[C@H](N2Cc3cc(C4CCN(CC5CCN(c6ccc(-c7cnc8[nH]cc(C(=O)c9c(F)ccc(NS(=O)(=O)N%10CC[C@@H](F)C%10)c9C(F)(F)F)c8c7)cc6)CC5)CC4)ccc3C2=O)C(=O)N1` [Compound 272, (3R)-N-{3-[5-(4-{4-[(4-{2-[(3S)-2,6-dioxopiperidin-3-yl]-1-oxo-2,3-dihydro-1H-isoindol-5-yl}piperidin-1-yl)methyl]piperidin-1-yl}phenyl)-1H-pyrrolo [2,3-b]pyridine-3-carbonyl]-4-fluoro-2-(trifluoromethyl)phenyl}-3-fluoropyrrolidine-1-sulfonamide], for which the half-maximal degradation concentration (DC50) at BRAF V600E is 50 to 500 nM; at BRAF G466V it was 1 to 10 nM. For the same compound, the maximal degradation (Dmax) at BRAF V600E and at BRAF G466V was 35 to 70% throughout.
As for `O=C1CCC(N2Cc3cc(C4CCN(CC5CCN(c6ccc(-c7cnc8[nH]cc(C(=O)c9c(F)ccc(NS(=O)(=O)N%10CC[C@@H](F)C%10)c9C(F)(F)F)c8c7)cc6)CC5)CC4)ccc3C2=O)C(=O)N1` (stereo partly drawn) [Compound 273, (3R)-N-[3-(5-{4-[4-({4-[2-(2,6-dioxopiperidin-3-yl)-1-oxo-2,3-dihydro-1H-isoindol-5-yl]piperidin-1-yl}methyl)piperidin-1-yl]phenyl}-1H-pyrrolo[2,3-b]pyridine-3-carbonyl)-4-fluoro-2-(trifluoromethyl)phenyl]-3-fluoropyrrolidine-1-sulfonamide], at BRAF V600E, the DC50 was above 500 nM and the maximal degradation (Dmax) was 35 to 70%. Moreover, at BRAF G466V, the 50% degradation concentration (DC50) is 10 to 30 nM and the greatest degradation seen (Dmax) lay in the range of 35 to 70%.
For the compound `COc1ccc(NS(=O)(=O)N2CC[C@@H](F)C2)c(OC)c1C(=O)c1c[nH]c2ncc(-c3ccc(N4CCC(CN5CCC(c6ccc7c(c6)CN([C@H]6CCC(=O)NC6=O)C7=O)CC5)CC4)cc3)cc12` [Compound 274, (3R)-N-{3-[5-(4-{4-[(4-{2-[(3S)-2,6-dioxopiperidin-3-yl]-1-oxo-2,3-dihydro-1H-isoindol-5-yl}piperidin-1-yl)methyl]piperidin-1-yl}phenyl)-1H-pyrrolo [2,3-b]pyridine-3-carbonyl]-2,4-dimethoxyphenyl}-3-fluoropyrrolidine-1-sulfonamide], the DC50 on BRAF V600E was above 500 nM; at BRAF G466V, above 30 nM.
As to `COc1ccc(NS(=O)(=O)N2CC[C@@H](F)C2)c(OC)c1C(=O)c1c[nH]c2ncc(-c3ccc(N4CCC(CN5CCC(c6ccc7c(c6)CN(C6CCC(=O)NC6=O)C7=O)CC5)CC4)cc3)cc12` (stereo partly drawn) [Compound 275, (3R)-N-[3-(5-{4-[4-({4-[2-(2,6-dioxopiperidin-3-yl)-1-oxo-2,3-dihydro-1H-isoindol-5-yl]piperidin-1-yl}methyl)piperidin-1-yl]phenyl}-1H-pyrrolo[2,3-b]pyridine-3-carbonyl)-2,4-dimethoxyphenyl]-3-fluoropyrrolidine-1-sulfonamide], the 50% degradation concentration (DC50) on BRAF V600E was above 500 nM; on BRAF G466V, above 30 nM.
In the case of `CCc1c(NS(=O)(=O)N2CC[C@@H](F)C2)ccc(F)c1C(=O)c1c[nH]c2ncc(-c3ccc(N4CCC(CN5CCC(c6ccc7c(c6)CN(C6CCC(=O)NC6=O)C7=O)CC5)CC4)cc3)cc12` (stereo partly drawn) [Compound 276, (3R)-N-[3-(5-{4-[4-({4-[2-(2,6-dioxopiperidin-3-yl)-1-oxo-2,3-dihydro-1H-isoindol-5-yl]piperidin-1-yl}methyl)piperidin-1-yl]phenyl}-1H-pyrrolo[2,3-b]pyridine-3-carbonyl)-2-ethyl-4-fluorophenyl]-3-fluoropyrrolidine-1-sulfonamide], the DC50 on BRAF V600E was below 5 nM; at BRAF G466V it was below 1 nM. Further, the maximal degradation (Dmax) at BRAF V600E and at BRAF G466V was 35 to 70% each time.
For `C[C@@H]1CC[C@@H](C)N1S(=O)(=O)Nc1ccc(F)c(C(=O)c2c[nH]c3ncc(-c4ccc(N5CCC(CN6CCC(c7ccc8c(c7)CN([C@H]7CCC(=O)NC7=O)C8=O)CC6)CC5)cc4)cc23)c1F` [Compound 277, (2R,5R)-N-{3-[5-(4-{4-[(4-{2-[(3S)-2,6-dioxopiperidin-3-yl]-1-oxo-2,3-dihydro-1H-isoindol-5-yl}piperidin-1-yl)methyl]piperidin-1-yl}phenyl)-1H-pyrrolo [2,3-b]pyridine-3-carbonyl]-2,4-difluorophenyl}-2,5-dimethylpyrrolidine-1-sulfonamide], at BRAF V600E, the DC50 was in the range of 5 to 50 nM and the greatest degradation seen (Dmax) is below 35%. Also, on BRAF G466V, the DC50 lay within 10 to 30 nM and the Dmax was above 70%.
With `O=C1CC[C@H](N2Cc3cc(C4CCN(CC5CCN(c6ccc(-c7cnc8[nH]cc(C(=O)c9c(F)ccc(NS(=O)(=O)N%10CC[C@@H](O)C%10)c9F)c8c7)cc6)CC5)CC4)ccc3C2=O)C(=O)N1` [Compound 278, (3R)-N-{3-[5-(4-{4-[(4-{2-[(3S)-2,6-dioxopiperidin-3-yl]-1-oxo-2,3-dihydro-1H-isoindol-5-yl}piperidin-1-yl)methyl]piperidin-1-yl}phenyl)-1H-pyrrolo [2,3-b]pyridine-3-carbonyl]-2,4-difluorophenyl}-3-hydroxypyrrolidine-1-sulfonamide], on BRAF V600E, the half-maximal degradation concentration (DC50) lay within 5 to 50 nM and the greatest degradation seen (Dmax) lay within 35 to 70%. On BRAF G466V, the DC50 was in the range of 1 to 10 nM and the maximal degradation (Dmax) fell in the range of 35 to 70%.
For the compound `O=C1CC[C@H](N2Cc3cc(C4CCN(CC5CCN(c6ccc(-c7cnc8[nH]cc(C(=O)c9c(F)ccc(NS(=O)(=O)N%10CC(O)C%10)c9F)c8c7)cc6)CC5)CC4)ccc3C2=O)C(=O)N1` [Compound 279, N-{3-[5-(4-{4-[(4-{2-[(3S)-2,6-dioxopiperidin-3-yl]-1-oxo-2,3-dihydro-1H-isoindol-5-yl}piperidin-1-yl)methyl]piperidin-1-yl}phenyl)-1H-pyrrolo[2,3-b]pyridine-3-carbonyl]-2,4-difluorophenyl}-3-hydroxyazetidine-1-sulfonamide], on BRAF V600E, the DC50 lay within 5 to 50 nM and the Dmax is below 35%. Besides, at BRAF G466V, the DC50 fell in the range of 10 to 30 nM and the Dmax is above 70%.
In the case of `CN(CCO)S(=O)(=O)Nc1ccc(F)c(C(=O)c2c[nH]c3ncc(-c4ccc(N5CCC(CN6CCC(c7ccc8c(c7)CN([C@H]7CCC(=O)NC7=O)C8=O)CC6)CC5)cc4)cc23)c1F` [Compound 280, (3S)-3-(5-{1-[(1-{4-[3-(2,6-difluoro-3-{[(2-hydroxyethyl)(methyl)sulfamoyl]amino}benzoyl)-1H-pyrrolo[2,3-b]pyridin-5-yl]phenyl}piperidin-4-yl)methyl]piperidin-4-yl}-1-oxo-2,3-dihydro-1H-isoindol-2-yl) piperidine-2,6-dione], at BRAF V600E, the DC50 fell in the range of 5 to 50 nM and the maximal degradation (Dmax) lay in the range of 35 to 70%. At BRAF G466V, the half-maximal degradation concentration (DC50) lay within 1 to 10 nM and the Dmax was in the range of 35 to 70%.

For the origin of these results see US12180193B2, “Accelerating fibrosarcoma protein degrading compounds and associated methods of use” (Arvinas Operations, Inc., priority 2020, dated 2024).
